Results taken from PubChem BioAssay (NCI).
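Five compound concentrations were applied to cells in 96-well plates for 48 hours; endpoints were derived by simple linear interpolation of the resulting dose-response curve. GI50 is the concentration that inhibits growth by half. TGI marks complete inhibition of growth.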

Experiments:
Test in all cases: NCI-60 cell line screen, 48 h
HOP-62 NSCLC = test system: HOP-62 NSCLC
IGROV1 ovarian = test system: IGROV1 ovarian
MDA-N = test system: MDA-N
OVCAR-5 ovarian = test system: OVCAR-5 ovarian
PC-3 prostate = test system: PC-3 prostate
SK-MEL-5 melanoma = test system: SK-MEL-5 melanoma
SN12C renal = test system: SN12C renal
SNB-19 CNS = test system: SNB-19 CNS
U251 CNS = test system: U251 CNS
HL-60(TB) leukemia = test system: HL-60(TB) leukemia

Row | Compound | TGI (HOP-62 NSCLC) [µM] | TGI (IGROV1 ovarian) [µM] | TGI (MDA-N) [µM] | TGI (OVCAR-5 ovarian) [µM] | TGI (PC-3 prostate) [µM] | TGI (SK-MEL-5 melanoma) [µM] | TGI (SN12C renal) [µM] | TGI (SNB-19 CNS) [µM] | TGI (U251 CNS) [µM] | GI50 (HL-60(TB) leukemia) [µM] | GI50 (HOP-62 NSCLC) [µM] | GI50 (IGROV1 ovarian) [µM] | GI50 (OVCAR-5 ovarian) [µM] | GI50 (PC-3 prostate) [µM] | GI50 (SK-MEL-5 melanoma) [µM] | GI50 (SN12C renal) [µM] | GI50 (SNB-19 CNS) [µM] | GI50 (U251 CNS) [µM] | TGI (HL-60(TB) leukemia) [µM]
1 | CN(C)Cc1cc(C(C)(C)C)cc(CNC2CCCCC2)c1O | > 100 | > 100 | > 100 | 73.3 | > 100 | 30.2 | > 100 | > 100 | > 100 | – | – | – | – | – | – | – | – | – | –
2 | COc1cc(C(=O)O[C@H](C(=O)NCCNC(=O)[C@@H](OC(=O)c2cc(OC)cc3c(C)cccc23)[C@]2(C)CO2)[C@]2(C)CO2)c2cccc(C)c2c1 | 0.919 | 5.28 | – | 2.08 | – | 0.28 | 0.263 | – | 0.306 | < 0.01 | 0.16 | < 0.0475 | 0.381 | 0.109 | 0.0331 | 0.0211 | 0.22 | 0.0225 | –
3 | CN1c2ccccc2C(=O)NC12CCN(Cc1ccccc1)CC2 | > 100 | > 100 | – | > 100 | – | > 100 | > 100 | > 100 | > 100 | – | – | – | – | – | – | – | – | – | > 100
4 | Fc1ccc(C2NC(=S)NC3=C2CCOc2c3ccc3ccccc23)cc1 (configuration not stated) | > 100 | > 100 | – | > 100 | > 100 | 37.1 | > 100 | > 100 | – | – | – | – | – | – | – | – | – | – | > 100
5 | CC1(C)C2CCC1(C)C(N/C(=C(/C(Cl)=C(Cl)Cl)[N+](=O)[O-])n1nnc3ccccc31)C2 (configuration not stated) | 67 | – | > 100 | > 100 | 48.3 | – | > 100 | 55.7 | 43.3 | – | – | – | – | – | – | – | – | – | –
6 | CCn1nc(-c2ccccc2)c2c1N(C)c1ccccc1-n1c(-c3ccccc3)nnc1-2 | 32.2 | 40.3 | 28.9 | 33.5 | 27.7 | 21.2 | 32.7 | 32.4 | 28.2 | – | – | – | – | – | – | – | – | – | –
7 | CCN(CC)c1ccc(/C=c2\nc(-c3ccccc3)n3c2nc2ccccc23)cc1 | 68.6 | > 100 | 24.6 | > 100 | 8.7 | 21.9 | > 100 | > 100 | > 100 | – | – | – | – | – | – | – | – | – | –
8 | CC(=O)c1cc2c(s1)C(=O)c1scc(C(C)=O)c1C2=O | 1.97 | 1.37 | 0.358 | 4.14 | 1.53 | 1.53 | 0.426 | 2.42 | 0.628 | – | – | – | – | – | – | – | – | – | –
9 | O=C(Nc1ccc(Cl)cc1)c1cccc([N+](=O)[O-])c1O | 9.13 | > 80.3 | – | > 100 | – | 4.86 | > 74.7 | > 50.9 | 48.5 | – | – | – | – | – | – | – | – | – | 7.18
